Where two headings read alike, the source gives them in different places.
Legend:
SOS1 = molecular target: T1, SOS1 (Homo sapiens, UniProt Q07889); assay: SOS-catalyzed nucleotide exchange assay (HTRF, SOS1-mediated GTP loading of KRAS G12D); format: biochemical
T1 construct: HIS-SOS1cat (160 nM; Cytoskeleton, US); His (N); purchased Cytoskeleton
T1 sequence (Q07889 564-1049 limits assumed): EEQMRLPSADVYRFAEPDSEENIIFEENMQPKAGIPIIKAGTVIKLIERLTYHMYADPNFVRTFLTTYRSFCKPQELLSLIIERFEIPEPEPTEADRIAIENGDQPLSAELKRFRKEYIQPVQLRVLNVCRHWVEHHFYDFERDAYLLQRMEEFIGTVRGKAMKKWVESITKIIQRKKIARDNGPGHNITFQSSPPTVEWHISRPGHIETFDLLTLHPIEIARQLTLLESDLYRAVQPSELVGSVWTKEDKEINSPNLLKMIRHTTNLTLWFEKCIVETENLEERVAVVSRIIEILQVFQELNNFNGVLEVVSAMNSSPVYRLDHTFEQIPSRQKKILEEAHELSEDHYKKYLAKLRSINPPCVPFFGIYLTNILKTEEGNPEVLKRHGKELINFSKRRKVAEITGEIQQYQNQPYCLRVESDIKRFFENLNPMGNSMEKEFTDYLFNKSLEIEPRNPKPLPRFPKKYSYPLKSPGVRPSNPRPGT
Method: SOS1 activity was measured by SOS1-mediated GTP loading quantification of KRAS^G12D. GTP loaded KRAS^G12D was detected by HTRF (Homogeneous Time Resolved Fluorescence) using anti-GST terbium (Cisbio, France) as a donor and a fluorescence GTP analogue (EDA-GTP-DY-647P1, [DY-647P1 labeled 2'/3'-O-(2-aminoethyl-carbamoyl)guanosine-5'-triphosphate (Jena bioscience, Germany)]) as an acceptor.
KRAS^G12D working solution was prepared by adding equal amounts of GST-KRAS^G12D (100 nM) and anti-GST-terbium (2 nM; Cisbio, France) to the assay buffer and culturing on ice for 10 minutes. […] Control solution was prepared by adding equal volumes of EDA-GTP-DY-647P1 and the assay buffer for normalization control to exclude GEF-independent GTP loading and background signals.
10 uL of the KRAS^G12D solution was added to each well and incubated for 30 minutes at room temperature while shaking. HTRF was measured using a Thermo Varioskan (excitation 334 nm, emission 665 nm). The IC50 of each inhibitor was analyzed using Graphad Prism.

KRAS G12C::SOS1 = molecular target: T2, KRAS G12C::SOS1 (Homo sapiens, UniProt Q07889); assay: KRAS G12C::SOS1 protein-protein interaction (PPI) inhibition assay (HTRF); format: binding
T2 construct: purchased CISBIO 64KRASG12PEH
T2 sequence (Q07889 1-1333): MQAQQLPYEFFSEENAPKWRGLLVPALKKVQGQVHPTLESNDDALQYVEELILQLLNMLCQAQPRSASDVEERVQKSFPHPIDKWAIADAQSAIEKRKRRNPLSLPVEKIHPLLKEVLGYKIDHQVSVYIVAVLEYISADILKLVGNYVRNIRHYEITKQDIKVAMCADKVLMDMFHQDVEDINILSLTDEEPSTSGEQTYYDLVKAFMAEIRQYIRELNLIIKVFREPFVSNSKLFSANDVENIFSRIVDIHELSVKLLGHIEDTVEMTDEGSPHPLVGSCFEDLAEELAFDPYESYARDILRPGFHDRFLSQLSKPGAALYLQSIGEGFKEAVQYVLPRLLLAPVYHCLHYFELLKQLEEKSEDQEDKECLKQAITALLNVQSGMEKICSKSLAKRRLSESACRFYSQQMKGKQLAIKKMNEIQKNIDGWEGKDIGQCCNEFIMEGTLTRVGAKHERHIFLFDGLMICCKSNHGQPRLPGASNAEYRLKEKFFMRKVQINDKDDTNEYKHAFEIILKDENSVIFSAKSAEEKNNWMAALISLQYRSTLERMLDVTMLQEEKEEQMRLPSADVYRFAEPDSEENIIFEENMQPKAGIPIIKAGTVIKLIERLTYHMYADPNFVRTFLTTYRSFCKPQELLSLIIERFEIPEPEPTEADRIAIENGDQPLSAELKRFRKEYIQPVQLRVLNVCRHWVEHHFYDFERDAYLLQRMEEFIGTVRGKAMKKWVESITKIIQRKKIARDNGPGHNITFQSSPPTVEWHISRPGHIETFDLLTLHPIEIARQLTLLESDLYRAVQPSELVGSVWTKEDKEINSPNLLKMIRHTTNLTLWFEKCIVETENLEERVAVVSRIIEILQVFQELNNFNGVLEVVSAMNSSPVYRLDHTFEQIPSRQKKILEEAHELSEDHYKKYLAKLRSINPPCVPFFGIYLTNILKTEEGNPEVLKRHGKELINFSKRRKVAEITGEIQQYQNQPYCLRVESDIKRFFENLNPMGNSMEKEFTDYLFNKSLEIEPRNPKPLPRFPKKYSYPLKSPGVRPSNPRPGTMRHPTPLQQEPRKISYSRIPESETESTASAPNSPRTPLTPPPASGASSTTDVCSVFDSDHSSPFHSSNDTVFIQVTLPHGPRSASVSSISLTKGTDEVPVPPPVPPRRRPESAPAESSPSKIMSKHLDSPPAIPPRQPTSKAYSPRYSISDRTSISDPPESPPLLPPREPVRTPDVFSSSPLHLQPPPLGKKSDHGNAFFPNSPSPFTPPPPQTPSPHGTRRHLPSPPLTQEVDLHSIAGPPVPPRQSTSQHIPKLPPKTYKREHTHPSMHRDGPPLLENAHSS
Method: Protein-protein interaction between SOS1 and KRAS^G12c was detected using KRAS G12C/SOS1 binding kit from CISBIO (64KRASG12PEH, CISBIO, FRANCE) according to the manufacturer's assay method. Briefly, the maximum concentration of an inhibitor sample was set to be 3 µM, and the inhibitor sample was diluted 7 times by 1/3, and samples having a total of 8 concentrations were prepared. In HTRF (Homogeneous Time-Resolved Fluorescence) exclusive 96-well low-volume white plate (66PL96005, CISBIO, FRANCE), 2 µL of an inhibitor sample prepared for each concentration, 5 µL of a mixed solution of Tag1 labeled KRAS^G12c protein and GTP diluted with the dilution solution provided by the manufacturer, and 5 µL of Tag2 labeled SOS1 protein were mixed, and added with 8 µL of a diluted solution where anti-Tag1 KRAS^G12C XL665 (HTRF acceptor) labeled antibody and anti-Tag2 SOS1 Terbium cryptate (HTRF donor) labeled antibody were mixed in an equal ratio and cultured at room temperature for 2 h.

[1] = GST-KRAS G12D, HIS-SOS1cat, compound 128 pM to 10 µM, read-out: SOS-catalyzed nucleotide exchange assay
[2] = 8 concentrations from 3 µM, three replicates, read-out: KRAS G12C::SOS1 PPI

IC50 (SOS1; [1]) [nM] | IC50 (KRAS G12C::SOS1; [2]) [nM] | Compound | also measured
50 to 150 | > 150 | C[C@@H](NC(=O)c1ccc(=O)n(-c2cnc(F)c(-c3cnnn3C)c2)n1)c1cccc(C(F)F)c1F [Example 6-1, N-{(1R)-1-(3-(difluoromethyl)-2-fluorophenyl)ethyl}-1-(6-fluoro-5-(1-methyl-1H-1,2,3-triazol-5-yl)pyridin-3-yl)-6-oxo-1,6-dihydropyridazine-3-carboxamide] | 
< 50 | < 50 | CCN1CC(n2nncc2-c2cncc(-n3nc(C(=O)N[C@H](C)c4cccc(C(F)(F)F)c4F)ccc3=O)c2)C1 [Example 20-9, (R)-1-(5-(1-(1-ethylazetidin-3-yl)-1H-1,2,3-triazol-5-yl)pyridin-3-yl)-N-(1-(2-fluoro-3-(trifluoromethyl)phenyl)ethyl)-6-oxo-1,6-dihydropyridazine-3-carboxamide] | 
< 50 | < 50 | C[C@@H](NC(=O)c1ccc(=O)n(-c2cncc(-c3cnnn3C3CN(S(C)(=O)=O)C3)c2)n1)c1cccc(C(F)(F)F)c1F [Example 20-12, (R)-N-(1-(2-fluoro-3-(trifluoromethyl)phenyl)ethyl)-1-(5-(1-(1-(methylsulfonyl)azetidin-3-yl)-1H-1,2,3-triazol-5-yl)pyridin-3-yl)-6-oxo-1,6-dihydropyridazine-3-carboxamide] | 

More lines, now with the values behind:

Compound | IC50 (SOS1; [1]) [nM] | IC50 (KRAS G12C::SOS1; [2]) [nM] | also measured
CCc1cc(C(=O)N[C@H](C)c2cccc(C(F)(F)CO)c2F)nn(-c2cncc(-c3cnnn3C(C)C)c2)c1=O [Example 1-41, N-{(R)-1-[3-(1,1-difluoro-2-hydroxyethyl)-2-fluorophenyl]ethyl}-5-ethyl-1-[5-(1-isopropyl-1H-1,2,3-triazol-5-yl)-3-pyridyl]-6-oxo-1,6-dihydropyridazine-3-carboxamide] | < 50 | < 50 | 
C[C@@H](NC(=O)c1ccc(=O)n(-c2cncc(-c3cnnn3CCO)c2)n1)c1cccc(C(F)(F)F)c1F [Example 11, N-{(R)-1-[2-fluoro-3-(trifluoromethyl)phenyl]ethyl}-1-{5-[1-(2-hydroxyethyl)-1H-1,2,3-triazol-5-yl]-3-pyridyl}-6-oxo-1,6-dihydropyridazine-3-carboxamide] | < 50 | 50 to 150 | 
CC(C)n1nncc1-c1cncc(-n2nc(C(=O)N[C@H](C)c3cccc(C(F)(F)F)c3F)ccc2=O)c1 [Example 1-49, N-[(1R)-1-[2-fluoro-3-(trifluoromethyl)phenyl]ethyl]-1-[5-(3-isopropyltriazol-4-yl)-3-pyridyl]-6-oxo-pyridazine-3-carboxamide] |  |  | IC50 (SOS1; read-out: SOS-catalyzed nucleotide exchange assay, GST-KRAS G12D, HIS-SOS1cat, compound 128 pM to 10 µM): 50 to 150 nM; IC50 (KRAS G12C::SOS1; read-out: KRAS G12C::SOS1 PPI, 8 concentrations from 3 µM, three replicates): < 50 nM
C[C@@H](NC(=O)c1ccc(=O)n(-c2cncc(-c3c(Cl)nnn3C)c2)n1)c1cccc(C(F)F)c1F [Example 13, N-{(R)-1-[3-(difluoromethyl)-2-fluorophenyl]ethyl}-1-[5-(4-chloro-1-methyl-1H-1,2,3-triazol-5-yl)-3-pyridyl]-6-oxo-1,6-dihydropyridazine-3-carboxamide] | 50 to 150 | > 150 | 
COCC(F)(F)c1cccc([C@@H](C)NC(=O)c2ccc(=O)n(-c3cncc(-c4cnnn4C)c3)n2)c1F [Example 1-10, (R)-N-(1-(3-(1,1-difluoro-2-methoxyethyl)-2-fluorophenyl)ethyl)-1-(5-(1-methyl-1H-1,2,3-triazol-5-yl)pyridin-3-yl)-6-oxo-1,6-dihydropyridazine-3-carboxamide] | < 50 | 50 to 150 | 
C[C@@H](NC(=O)c1ccc(=O)n(-c2cncc(-c3cnnn3C)n2)c1)c1cccc(C(F)(F)F)c1F [Example 1-48, N-{(R)-1-[2-fluoro-3-(trifluoromethyl)phenyl]ethyl}-1-[6-(1-methyl-1H-1,2,3-triazol-5-yl)pyrazin-2-yl]-6-oxo-1,6-dihydropyridine-3-carboxamide] | > 150 | > 150 | 
[2H]C([2H])(O)C(F)(F)c1cccc([C@@H](C)NC(=O)c2ccc(=O)n(-c3cncc(-c4cnnn4C4CNC4)c3)n2)c1F [Example 20-3, (R)-1-(5-(1-(azetidin-3-yl)-1H-1,2,3-triazol-5-yl)pyridin-3-yl)-N-(1-(3-(1,1-difluoro-2-hydroxyethyl-2,2-dideuterio)-2-fluorophenyl)ethyl)-6-oxo-1,6-dihydropyridazine-3-carboxamide] |  |  | IC50 (SOS1): < 50 nM; IC50 (KRAS G12C::SOS1): < 50 nM
CCn1nncc1-c1cncc(-n2nc(C(=O)N[C@H](C)c3cccc(C(F)(F)CO)c3F)ccc2=O)c1 [Example 1-18, N-[(1R)-1-[3-(1,1-difluoro-2-hydroxy-ethyl)-2-fluoro-phenyl]ethyl]-1-[5-(3-ethyltriazol-4-yl)-3-pyridyl]-6-oxo-pyridazine-3-carboxamide] | < 50 | < 50 | 
Cc1c([C@@H](C)NC(=O)c2ccc(=O)n(-c3cncc(-c4cnnn4C)c3)n2)cc(N)cc1C(F)(F)F [Example 2-2, N-[(1R)-1-[5-amino-2-methyl-3-(trifluoromethyl)phenyl]ethyl]-1-[5-(3-methyltriazol-4-yl)-3-pyridyl]-6-oxo-pyridazine-3-carboxamide] | < 50 | < 50 | 
C[C@@H](NC(=O)c1cc(C2CCCCC2)c(=O)n(-c2cncc(-c3cnnn3C)c2)n1)c1cccc(C(F)(F)F)c1F [Example 1-65, N-{(R)-1-[2-fluoro-3-(trifluoromethyl)phenyl]ethyl}-5-cyclohexyl-1-[5-(1-methyl-1H-1,2,3-triazol-5-yl)-3-pyridyl]-6-oxo-1,6-dihydropyridazine-3-carboxamide] | > 150 | 50 to 150 | 
